Measured values taken from the supplement of paper PMC13380429.

What was measured:
Calu-3 [1] = test: drug sensitivity score (DSS) for viability; higher = more toxic; extreme values may be limits of the assay; details: 72 h
Vero E6 [2] = test: as above; details: 72 h
U2OS [3] = test: as above; details: 72 h
Caco-2 [4] = test: as above; details: 72 h
HepG2 [5] = test: as above; details: 72 h
Calu-3 [6] = test: relative viability EC50 (midpoint between 100% and the lowest measured viability); higher = less toxic; details: 72 h
Vero E6 [7] = test: as above; details: 72 h
U2OS [8] = test: as above; details: 72 h
Caco-2 [9] = test: as above; details: 72 h
HepG2 [10] = test: as above; details: 72 h
[11] = tested on: A549-ACE2 infected with SARS-CoV-2; test: morphology score (similarity to uninfected cells); higher = more like uninfected cells; details: 24 h
Calu-3 [12] = test: cell viability relative to DMSO; higher = less toxic; details: 72 h
Vero E6 [13] = test: as above; details: 72 h
U2OS [14] = test: as above; details: 72 h
Caco-2 [15] = test: as above; details: 72 h
HepG2 [16] = test: as above; details: 72 h
A549-ACE2 [17] = test: drug-induced phospholipidosis relative to tamoxifen; higher = more phospholipidosis
[18] = tested on: A549-ACE2 infected with SARS-CoV-2; test: cell count relative to DMSO; higher = less toxic; details: 24 h
[19] = tested on: A549-ACE2 infected with SARS-CoV-2; test: SARS-CoV-2 infection rate relative to DMSO; higher = more infection; details: 24 h
A549-ACE2 [20] = test: phospholipidosis EC50; higher = less potent phospholipidosis inducer

Question: With `C=C1C(=O)O[C@@H]2/C=C(\C)CC/C=C(\C)CC[C@@H]12` [costunolide] as the compound, how does the drug sensitivity score (Calu-3 [1]) read?
Answer: 0

Question: And the drug sensitivity score (Vero E6 [2])?
Answer: 0

Question: And the drug sensitivity score (U2OS [3])?
Answer: 0

Question: What about the drug sensitivity score (Caco-2 [4]) of the same compound?
Answer: 0.9

Question: And the drug sensitivity score (HepG2 [5])?
Answer: 0

Question: And the “relative viability EC50” value (Calu-3 [6])?
Answer: > 10 µM

Question: And the “relative viability EC50” value (Vero E6 [7])?
Answer: > 10 µM

Question: And the “relative viability EC50” value (U2OS [8])?
Answer: > 10 µM

Question: And the “relative viability EC50” value (Caco-2 [9])?
Answer: > 10 µM

Question: What about the “relative viability EC50” value (HepG2 [10]) of the same compound?
Answer: > 10 µM

Question: What about the morphology score ([11]; 0.3 µM) of the same compound?
Answer: 0.19

Question: And the morphology score ([11]; 3 µM)?
Answer: -0.19

Question: And the morphology score ([11]; 10 µM)?
Answer: -0.21

Question: What about the morphology score ([11]; 30 µM) of the same compound?
Answer: 0.15

Question: What about the cell viability (Calu-3 [12]; 1 nM) of the same compound?
Answer: 117%

Question: What about the cell viability (Calu-3 [12]; 10 nM) of the same compound?
Answer: 102%

Question: And the cell viability (Calu-3 [12]; 100 nM)?
Answer: 98.7%

Question: And the cell viability (Calu-3 [12]; 1000 nM)?
Answer: 94.5%

Question: What about the cell viability (Calu-3 [12]; 10000 nM) of the same compound?
Answer: 105%

Question: And the cell viability (Vero E6 [13]; 1 nM)?
Answer: 98.6%

Question: What about the cell viability (Vero E6 [13]; 10 nM) of the same compound?
Answer: 91.9%

Question: What about the cell viability (Vero E6 [13]; 100 nM) of the same compound?
Answer: 99.1%

Question: What about the cell viability (Vero E6 [13]; 1000 nM) of the same compound?
Answer: 97.8%

Question: What about the cell viability (Vero E6 [13]; 10000 nM) of the same compound?
Answer: 93.4%

Question: What about the cell viability (U2OS [14]; 1 nM) of the same compound?
Answer: 96.3%

Question: And the cell viability (U2OS [14]; 10 nM)?
Answer: 99.8%

Question: And the cell viability (U2OS [14]; 100 nM)?
Answer: 94.3%

Question: And the cell viability (U2OS [14]; 1000 nM)?
Answer: 96.8%

Question: And the cell viability (U2OS [14]; 10000 nM)?
Answer: 94.7%

Question: What about the cell viability (Caco-2 [15]; 1 nM) of the same compound?
Answer: 96.5%

Question: And the cell viability (Caco-2 [15]; 10 nM)?
Answer: 92.8%

Question: And the cell viability (Caco-2 [15]; 100 nM)?
Answer: 91.1%

Question: What about the cell viability (Caco-2 [15]; 1000 nM) of the same compound?
Answer: 86.6%

Question: What about the cell viability (Caco-2 [15]; 10000 nM) of the same compound?
Answer: 87.1%

Question: What about the cell viability (HepG2 [16]; 1 nM) of the same compound?
Answer: 99.7%

Question: And the cell viability (HepG2 [16]; 10 nM)?
Answer: 108%

Question: And the cell viability (HepG2 [16]; 100 nM)?
Answer: 92.9%

Question: And the cell viability (HepG2 [16]; 1000 nM)?
Answer: 97.3%

Question: What about the cell viability (HepG2 [16]; 10000 nM) of the same compound?
Answer: 91.5%

Question: And the drug-induced phospholipidosis (A549-ACE2 [17]; 0.3 µM, 24 h)?
Answer: 0.39%

Question: And the drug-induced phospholipidosis (A549-ACE2 [17]; 0.3 µM, 48 h)?
Answer: 2.36%

Question: And the drug-induced phospholipidosis (A549-ACE2 [17]; 0.3 µM, 72 h)?
Answer: 2.1%

Question: What about the drug-induced phospholipidosis (A549-ACE2 [17]; 0.833333 µM, 24 h) of the same compound?
Answer: -3.23%

Question: What about the drug-induced phospholipidosis (A549-ACE2 [17]; 0.833333 µM, 48 h) of the same compound?
Answer: -2.51%

Question: What about the drug-induced phospholipidosis (A549-ACE2 [17]; 0.833333 µM, 72 h) of the same compound?
Answer: -1.84%

Question: What about the drug-induced phospholipidosis (A549-ACE2 [17]; 3.33333 µM, 24 h) of the same compound?
Answer: 0.77%

Question: What about the drug-induced phospholipidosis (A549-ACE2 [17]; 3.33333 µM, 48 h) of the same compound?
Answer: 0.025%

Question: What about the drug-induced phospholipidosis (A549-ACE2 [17]; 3.33333 µM, 72 h) of the same compound?
Answer: -1.2%

Question: What about the drug-induced phospholipidosis (A549-ACE2 [17]; 6.66667 µM, 24 h) of the same compound?
Answer: 4.32%

Question: What about the drug-induced phospholipidosis (A549-ACE2 [17]; 6.66667 µM, 48 h) of the same compound?
Answer: 1.2%

Question: What about the drug-induced phospholipidosis (A549-ACE2 [17]; 6.66667 µM, 72 h) of the same compound?
Answer: -0.442%

Question: What about the drug-induced phospholipidosis (A549-ACE2 [17]; 10 µM, 24 h) of the same compound?
Answer: 10.4%

Question: What about the drug-induced phospholipidosis (A549-ACE2 [17]; 10 µM, 48 h) of the same compound?
Answer: 4.57%

Question: And the drug-induced phospholipidosis (A549-ACE2 [17]; 10 µM, 72 h)?
Answer: 1.25%

Question: What about the drug-induced phospholipidosis (A549-ACE2 [17]; 30 µM, 24 h) of the same compound?
Answer: 39.6%

Question: What about the drug-induced phospholipidosis (A549-ACE2 [17]; 30 µM, 48 h) of the same compound?
Answer: 14.4%

Question: And the drug-induced phospholipidosis (A549-ACE2 [17]; 30 µM, 72 h)?
Answer: 9.89%

Question: What about the cell count ([18]; 0.3 µM) of the same compound?
Answer: 104%

Question: And the cell count ([18]; 3 µM)?
Answer: 97%

Question: And the cell count ([18]; 10 µM)?
Answer: 99%

Question: What about the cell count ([18]; 30 µM) of the same compound?
Answer: 70%

Question: And the SARS-CoV-2 infection rate ([19]; 0.3 µM)?
Answer: 103%

Question: What about the SARS-CoV-2 infection rate ([19]; 3 µM) of the same compound?
Answer: 104%

Question: What about the SARS-CoV-2 infection rate ([19]; 10 µM) of the same compound?
Answer: 106%

Question: What about the SARS-CoV-2 infection rate ([19]; 30 µM) of the same compound?
Answer: 66%

Question: What does the source list for `CCCCCCCCc1ccc(CCC(N)(CO)CO)cc1` [fingolimod]?
Answer: phospholipidosis EC50 (A549-ACE2 [20]; 24 h): 3.36 µM; phospholipidosis EC50 (A549-ACE2 [20]; 48 h): 3.04 µM; phospholipidosis EC50 (A549-ACE2 [20]; 72 h): 5.67 µM; drug sensitivity score (Calu-3 [1]): 5.8; drug sensitivity score (Vero E6 [2]): 0.2; drug sensitivity score (U2OS [3]): 0.9; drug sensitivity score (Caco-2 [4]): 3.3; drug sensitivity score (HepG2 [5]): 5.8; relative viability EC50 (Calu-3 [6]): 2.73 µM; relative viability EC50 (Vero E6 [7]): > 10 µM; relative viability EC50 (HepG2 [10]): 3.02 µM; morphology score ([11]; 0.3 µM): -0.2; morphology score ([11]; 3 µM): 0.46; morphology score ([11]; 10 µM): 0.74; cell viability (Calu-3 [12]; 1 nM): 101%; cell viability (Calu-3 [12]; 10 nM): 104%; cell viability (Calu-3 [12]; 100 nM): 102%; cell viability (Calu-3 [12]; 1000 nM): 94.9%; cell viability (Calu-3 [12]; 10000 nM): 8.4%; cell viability (Vero E6 [13]; 1 nM): 105%; cell viability (Vero E6 [13]; 10 nM): 95.4%; cell viability (Vero E6 [13]; 100 nM): 105%; cell viability (Vero E6 [13]; 1000 nM): 101%; cell viability (Vero E6 [13]; 10000 nM): 84.7%; cell viability (U2OS [14]; 1 nM): 102%; cell viability (U2OS [14]; 10 nM): 105%; cell viability (U2OS [14]; 100 nM): 102%; cell viability (U2OS [14]; 1000 nM): 105%; cell viability (U2OS [14]; 10000 nM): 71.9%; cell viability (Caco-2 [15]; 1 nM): 101%; cell viability (Caco-2 [15]; 10 nM): 100%; cell viability (Caco-2 [15]; 100 nM): 87.2%; cell viability (Caco-2 [15]; 1000 nM): 93.8%; cell viability (Caco-2 [15]; 10000 nM): 55.7%; cell viability (HepG2 [16]; 1 nM): 107%; cell viability (HepG2 [16]; 10 nM): 105%; cell viability (HepG2 [16]; 100 nM): 99.5%; cell viability (HepG2 [16]; 1000 nM): 98%; cell viability (HepG2 [16]; 10000 nM): 0.4%; drug-induced phospholipidosis (A549-ACE2 [17]; 0.3 µM, 24 h): 9.06%; drug-induced phospholipidosis (A549-ACE2 [17]; 0.3 µM, 48 h): 8.05%; drug-induced phospholipidosis (A549-ACE2 [17]; 0.3 µM, 72 h): 4.63%; drug-induced phospholipidosis (A549-ACE2 [17]; 0.833333 µM, 24 h): 18.8%; drug-induced phospholipidosis (A549-ACE2 [17]; 0.833333 µM, 48 h): 10.9%; drug-induced phospholipidosis (A549-ACE2 [17]; 0.833333 µM, 72 h): 6.35%; drug-induced phospholipidosis (A549-ACE2 [17]; 3.33333 µM, 24 h): 83.3%; drug-induced phospholipidosis (A549-ACE2 [17]; 3.33333 µM, 48 h): 84.5%; drug-induced phospholipidosis (A549-ACE2 [17]; 3.33333 µM, 72 h): 49.7%; drug-induced phospholipidosis (A549-ACE2 [17]; 6.66667 µM, 24 h): 124%; drug-induced phospholipidosis (A549-ACE2 [17]; 6.66667 µM, 48 h): 114%; drug-induced phospholipidosis (A549-ACE2 [17]; 6.66667 µM, 72 h): 102%; drug-induced phospholipidosis (A549-ACE2 [17]; 10 µM, 24 h): 138%; drug-induced phospholipidosis (A549-ACE2 [17]; 10 µM, 48 h): 135%; drug-induced phospholipidosis (A549-ACE2 [17]; 10 µM, 72 h): 130%; cell count ([18]; 0.3 µM): 100%; cell count ([18]; 3 µM): 109%; cell count ([18]; 10 µM): 114%; SARS-CoV-2 infection rate ([19]; 0.3 µM): 100%; SARS-CoV-2 infection rate ([19]; 3 µM): 64%; SARS-CoV-2 infection rate ([19]; 10 µM): 12%
